Assay results from ChEMBL document CHEMBL4725419, “Complete Regression of Carcinoma via Combined C-RAF and EGFR Targeted Therapy” (2020).

How the values were obtained:
[1] = Antiproliferative activity against EGFR/C-RAF knockdown human Panc198 cells harboring K-RAS G12D/TP53 D208V mutant xenografted in mouse tumor model assessed as inhibition of cell proliferation by MTT assay in presence of erlotinib; assay type: functional
[2] = system: PANC-1; experiment: Antiproliferative activity against EGFR/C-RAF knockdown human PANC-1 cells harboring K-RAS G12D/TP53 P72R/K129R mutant xenografted in mouse tumor model assessed as inhibition of cell proliferation by MTT assay in presence of erlotinib; assay type: functional
[3] = Antiproliferative activity against EGFR/C-RAF knockdown human Panc4 cells harboring K-RAS G12D/TP53 P72R/R28W mutant xenografted in mouse tumor model assessed as inhibition of cell proliferation by MTT assay in presence of erlotinib; assay type: functional, Panc-4
[4] = Antiproliferative activity against EGFR/C-RAF knockdown human PDAC003T cells harboring K-RAS G12D/TP53 Q136P mutant xenografted in mouse tumor model assessed as inhibition of cell proliferation by MTT assay in presence of erlotinib; assay type: functional
[5] = Antiproliferative activity against EGFR/C-RAF knockdown human PDAC013T cells harboring K-RAS G12D/TP53 I254T mutant xenografted in mouse tumor model assessed as inhibition of cell proliferation by MTT assay in presence of erlotinib; assay type: functional
[6] = Antiproliferative activity against EGFR/C-RAF knockdown human H-PDAC-M-X3 cells harboring K-RAS G12D/TP53 H179Y mutant xenografted in mouse tumor model assessed as inhibition of cell proliferation by MTT assay in presence of erlotinib; assay type: functional

Compound: C#Cc1cccc(Nc2ncnc3cc(OCCOC)c(OCCOC)cc23)c1 [ERLOTINIB]
- INH [1]: 32.8 µM
- INH [2]: 6.1 µM
- INH [3]: 2.82 µM
- INH [4]: 11.7 µM
- INH [5]: 2.05 µM
- INH [6]: 24.5 µM
